Measured values taken from the NIST ThermoML archive (doi:10.1021/acs.jced.6b00327).

Test: xn = mol fraction of the nth substance listed
Details: Liquid, Buoyancy - hydrostatic balance with magnetic suspension - one sinker

F/C=C/C(F)(F)F [trans-1,3,3,3-tetrafluoropropene] + CCC
Details | mass density [kg/m3]
253.14 K, x1 = 0.4965 | 913.53
253.3 K, x1 = 0.1746 | 680.21
253.44 K, x1 = 0.8803 | 1197.23
253.45 K, x1 = 0.7006 | 1067.62
256.11 K, x1 = 0.1746 | 676.35
258.14 K, x1 = 0.7006 | 1056.03
258.17 K, x1 = 0.4965 | 903.57
258.2 K, x1 = 0.8803 | 1186.23
261.14 K, x1 = 0.1746 | 670.01
263.15 K, x1 = 0.7006 | 1043.42
263.16 K, x1 = 0.4965 | 892.67
263.17 K, x1 = 0.8803 | 1175.37
265.18 K, x1 = 0.1746 | 662.22
268.17 K, x1 = 0.7006 | 1030.6
268.19 K, x1 = 0.4965 | 884.02
268.2 K, x1 = 0.8803 | 1162.41
269.18 K, x1 = 0.1746 | 655.74
273.18 K, x1 = 0.7006 | 1017.6
273.18 K, x1 = 0.8803 | 1149.12
273.2 K, x1 = 0.1746 | 648.23
273.2 K, x1 = 0.4965 | 873.27
278.19 K, x1 = 0.8803 | 1135.29
278.2 K, x1 = 0.1746 | 640.01
278.2 K, x1 = 0.7006 | 1004.24
278.24 K, x1 = 0.4965 | 862
283.18 K, x1 = 0.1746 | 630.77
283.19 K, x1 = 0.4965 | 851.76
283.19 K, x1 = 0.8803 | 1121.17
283.2 K, x1 = 0.7006 | 991.21
288.21 K, x1 = 0.8803 | 1106.57
288.22 K, x1 = 0.7006 | 977.85
288.25 K, x1 = 0.4965 | 842.07
293.28 K, x1 = 0.4965 | 831.58
293.28 K, x1 = 0.7006 | 963.78
293.28 K, x1 = 0.8803 | 1091.31
